According to patent US8143244B2, “Cyclopropyl fused indolobenzazepine HCV NS5B inhibitors” (Bristol-Myers Squibb Company, priority 2009, dated 2012):

Experiments:
HCV replicon [1] = assay: HCV Replicon Luciferase Reporter Assay (LE Assay); format: cell-based, HCV genotype 1b
Experimental: The HCV replicon luciferase assay was developed to monitor the inhibitory effects of compounds described in the disclosure on HCV viral replication. Utilization of a replicon luciferase reporter assay was first described by Krieger et al (Krieger N, Lohmann V, and Bartenschlager R, J. Virol. 75(10):4614-4624 (2001)). HUH-7 cells, constitutively expressing the HCV replicon, were grown in Dulbeccors Modified Eagle Media (DMEM) (Gibco-BRL) containing 10% Fetal calf serum (FCS) (Sigma) and 1 mg/ml G418 (Gibco-BRL). Compounds were serially diluted 3 folds in DMSO for a twenty-point titration and subsequently transferred to sterile 384-well tissue-culture treated plates (Coming cat #3571). The plates were then seeded with 50 μl of cells at a density of 3.0×10^3 cells/well in DMEM containing 4% FCS (final DMSO concentration at 0.5%). After 3 days incubation at 37° C., cells were analyzed for Renilla Luciferase activity using the EnduRen as substrate (Promega cat #E6485). The EnduRen substrate was diluted in DMEM and then added to the plates to a final concentration of 7.5 μM. The plates were incubated for 2 hrs at 37° C. and then read immediately for 30 seconds with Viewlux Imager (PerkinElmer) using a luminescence program. To assess cytotoxicity of compounds, CC50 values were generated by multiplexing the EnduRen-containing plates with Cell Titer-Blue (Promega, cat #G8082). 3 μl of Cell-Titer Blue was added to each well and incubated for 8 hrs at 37° C. The fluorescence signal from each well was read, with an excitation wavelength at 525/10 nm and an emission wavelength of 598/10 nm, using the Viewlux Imager.

HCV replicon [2] = assay: HCV replicon FRET / luciferase assay (NeoLuc); format: cell-based, HCV genotype 1b; settings: HCV replicon cells
From the text: FRET Assay Preparation. To perform the HCV FRET screening assay, 96-well cell culture plates were used. The FRET peptide (Anaspec, Inc.) (Taliani et al., Anal. Biochem. 1996, 240, 60-67) contains a fluorescence donor, EDANS, near one end of the peptide and an acceptor, DABCYL, near the other end. The fluorescence of the peptide is quenched by […] resonance energy transfer (RET) between the donor and the acceptor, but as the NS3 protease cleaves the peptide the products are released from RET quenching and the fluorescence of the donor becomes apparent. The assay reagent was made as follows: 5× cell Luciferase cell culture lysis reagent from Promega (#E153A) diluted to 1× with dH2O, NaCl added to 150 mM final, the FRET peptide diluted to 20 μM final from a 2 mM stock.
To prepare plates, HCV replicon cells, with or without a Renilla luciferase reporter gene, were trypsinized and placed into each well of a 96-well plate with titrated test compounds added in columns 3 through 12; columns 1 and 2 contained a control compound (HCV protease inhibitor), and the bottom row contained cells without compound. The plates were then placed in a CO2 incubator at 37° C.
Assays. Subsequent to addition of the test compounds described above (FRET Assay Preparation), at various times the plate was removed and Alamar blue solution (Trek Diagnostics, #00-100) was added per well as a measure of cellular toxicity. After reading in a Cytoflour 4000 instrument (PE Biosystems), plates were rinsed with PBS and then used for FRET assay by the addition of 30 ul of the FRET peptide assay reagent described above (FRET Assay Preparation) per well. The plate was then placed into the Cytoflour 4000 instrument which had been set to 340 excite/490 emission, automatic mode for 20 cycles and the plate read in a kinetic mode. Typically, the signal to noise using an endpoint analysis after the reads was at least three-fold. Alternatively, after Alamar blue reading, plates were rinsed with PBS, 50 ul of DMEM (high glucose) without phenol red was added and plates were then used for luciferase assay using the Promega Dual-Glo Luciferase Assay System,
Compound analysis was deteiniined by quantification of the relative HCV replicon inhibition and the relative cytotoxicity values. To calculate cytoxicity values, the average Alamar Blue fluorescence signals from the control wells were set as 100% non-toxic. The individual signals in each of the compound test wells were then divided by the average control signal and multiplied by 100% to determine […]. To calculate the HCV replicon inhibition values, an average background value was obtained from the two wells containing the highest amount of HCV protease inhibitor at the end of the assay period. These numbers were similar to those obtained from naïve Huh-7 cells.
The background numbers were then subtracted from the average signal obtained from the control wells and this number was used as 100% activity. The individual signals in each of the compound test wells were then divided by the averaged control values after background subtraction and multiplied by 100% to determine percent activity. EC50 values for a protease inhibitor titration were calculated as the concentration which caused a 50% reduction in FRET or luciferase activity. The two numbers generated for the compound plate, percent cytoxicity and percent activity were used to determine compounds of interest for further analysis.

[3] = Hepatitis C virus, genotype 1b, Huh-7, read-out: LE NeoLuc EC50, Table 1, HUH-7 cells, genotype 1b replicon
[4] = Hepatitis C virus, genotype 1b, read-out: NeoLuc EC50, Table 1, genotype 1b
[5] = Hepatitis C virus, Huh-7, Table 2, HUH-7 cells, read-out: LE NeoLuc EC50
[6] = Hepatitis C virus, Table 2, read-out: NeoLuc EC50
[7] = Table 2, HUH-7 cells, read-out: LE NeoLuc EC50

Structure (SMILES) | EC50 (HCV replicon [1]; [3]) [nM] | EC50 (HCV replicon [2]; [4]) [nM] | further results
COc1ccc2c(c1)CC(C(=O)N1CC34CN(C)CC3(CN(C)C4)C1)Cn1c-2c(C2CCCCC2)c2ccc(C(=O)NS(=O)(=O)N(C)C)cc21 (centres unmarked) | 1.9 to 500 | 1.9 to 500 | –
COc1ccc2c(c1)[C@@H]1C[C@]1(C(=O)N1CC34CN(C)CC3(CN(C)C4)C1)Cn1c-2c(C2CCCCC2)c2ccc(C(=O)NS(=O)(=O)C(C)C)cc21 (some centres unmarked) | 1.9 to 500 | 1.9 to 500 | –
CCN1CC23COCC2(C1)CN(C(=O)[C@]12C[C@H]1c1cc(OC)ccc1-c1c(C4CCCCC4)c4ccc(C(=O)NS(=O)(=O)C(C)C)cc4n1C2)C3 (some centres unmarked) | 1.9 to 500 | 1.9 to 500 | –
C=C(C)S(=O)(=O)NC(=O)c1ccc2c(C3CCCCC3)c3n(c2c1)C[C@@]1(C(=O)N2CC45COCC4(CN(C)C5)C2)C[C@H]1c1cc(OC)ccc1-3 (some centres unmarked) | 1.9 to 500 | 1.9 to 500 | –
COc1ccc2c(c1)C=C(C(=O)N1CC34COCC3(C1)N(C(C)=O)C4)Cn1c-2c(C2CCCCC2)c2ccc(C(=O)NS(=O)(=O)N(C)C)cc21 (centres unmarked) | 1.9 to 500 | 1.9 to 500 | –
COc1ccc2c(c1)C=C(C(=O)N1CC34COCC3(CN(C)C4)C1)Cn1c-2c(C2CCCCC2)c2ccc(C(=O)NS(=O)(=O)N(C)C)cc21 (centres unmarked) | 1.9 to 500 | 1.9 to 500 | –
COc1ccc2c(c1)C1CC1(C(=O)N1CC34COCC3(CN(C)C4)C1)Cn1c-2c(C2CCCCC2)c2ccc(C(=O)NS(=O)(=O)N(C)C)cc21 (centres unmarked) [drawing 61] | 1.9 to 500 | 1.9 to 500 | –
COc1ccc2c(c1)[C@@H]1C[C@]1(C(=O)N1CC34COCC3(CN(C)C4)C1)Cn1c-2c(C2CCCCC2)c2ccc(C(=O)NS(=O)(=O)C(C)C)cc21 (some centres unmarked) | 1.9 to 500 | 1.9 to 500 | –
COc1ccc2c(c1)CC(C(=O)N1CC34CNCC3(CN(C)C4)C1)Cn1c-2c(C2CCCCC2)c2ccc(C(=O)NS(=O)(=O)C3CC3)cc21 (centres unmarked) | 500 to 1000 | > 1000 | –
COc1ccc2c(c1)[C@@H]1C[C@]1(C(=O)N1CC34COCC3(C1)N(C(C)=O)C4)Cn1c-2c(C2CCCCC2)c2ccc(C(=O)NS(=O)(=O)N(C)C)cc21 (some centres unmarked) | 1.9 to 500 | 1.9 to 500 | –
COc1ccc2c(c1)CC(C(=O)N1CC34COCC3(CN(C)C4)C1)Cn1c-2c(C2CCCCC2)c2ccc(C(=O)NS(=O)(=O)C3CC3)cc21 (centres unmarked) | 1.9 to 500 | 1.9 to 500 | –
COc1ccc2c(c1)C=C(C(=O)N1CC34CNCC3(COC4)C1)Cn1c-2c(C2CCCCC2)c2ccc(C(=O)NS(=O)(=O)C3CC3)cc21 (centres unmarked) | 1.9 to 500 | 1.9 to 500 | –
COc1ccc2c(c1)C=C(C(=O)N1CC34CNCC3(COC4)C1)Cn1c-2c(C2CCCCC2)c2ccc(C(=O)NS(=O)(=O)N(C)C)cc21 (centres unmarked) | 1.9 to 500 | 1.9 to 500 | –
COc1ccc2c(c1)C1CC1(C(=O)N1CC34CN(C)CC3(CN(C)C4)C1)Cn1c-2c(C2CCCCC2)c2ccc(C(=O)NS(=O)(=O)N(C)C)cc21 (centres unmarked) | 1.9 to 500 | 1.9 to 500 | –
COc1ccc2c(c1)[C@@H]1C[C@]1(C(=O)N1CC34CNCC3(COC4)C1)Cn1c-2c(C2CCCCC2)c2ccc(C(=O)NS(=O)(=O)C(C)C)cc21 (some centres unmarked) | 1.9 to 500 | 1.9 to 500 | –
COc1ccc2c(c1)C=C(C(=O)N1CC34COCC3(CN(C)C4)C1)Cn1c-2c(C2CCCCC2)c2ccc(C(=O)NS(=O)(=O)C3CC3)cc21 (centres unmarked) | 1.9 to 500 | 1.9 to 500 | –
COc1ccc2c(c1)C1CC1(C(=O)N1CC34CNCC3(CN(C)C4)C1)Cn1c-2c(C2CCCCC2)c2ccc(C(=O)NS(=O)(=O)N(C)C)cc21 (centres unmarked) | 1.9 to 500 | 1.9 to 500 | –
COc1ccc2c(c1)C1CC1(C(=O)N1CC34CNCC3(CN(C)C4)C1)Cn1c-2c(C2CCCCC2)c2ccc(C(=O)NS(=O)(=O)C3CC3)cc21 (centres unmarked) | – | – | EC50 (HCV replicon [1]; [5]): 2100 nM; EC50 (HCV replicon [2]; [6]): > 1000 nM
COc1ccc2c(c1)C=C(C(=O)N1CC34CN(C)CC3(CN(C)C4)C1)Cn1c-2c(C2CCCCC2)c2ccc(C(=O)NS(=O)(=O)N(C)C)cc21 (centres unmarked) | 1.9 to 500 | 1.9 to 500 | –
COc1ccc2c(c1)[C@@H]1C[C@]1(C(=O)N1CC34COCC3(C1)N(C(C)=O)C4)Cn1c-2c(C2CCCCC2)c2ccc(C(=O)NS(=O)(=O)C(C)C)cc21 (some centres unmarked) [drawing 110] | – | – | EC50 (HCV replicon [1]; [7]): 30 nM; EC50 (HCV replicon [2]; Table 2, read-out: NeoLuc EC50): 10 nM
COc1ccc2c(c1)C1CC1(C(=O)N1CC34CNCC3(COC4)C1)Cn1c-2c(C2CCCCC2)c2ccc(C(=O)NS(=O)(=O)N(C)C)cc21 (centres unmarked) | 1.9 to 500 | 1.9 to 500 | –
COc1ccc2c(c1)[C@@H]1C[C@]1(C(=O)N1CC34COCC3(C1)CN(C1CC1)C4)Cn1c-2c(C2CCCCC2)c2ccc(C(=O)NS(=O)(=O)C(C)C)cc21 (some centres unmarked) | 1.9 to 500 | 1.9 to 500 | –
COc1ccc2c(c1)[C@@H]1C[C@]1(C(=O)N1CC34COCC3(C1)N(C(C)=O)C4)Cn1c-2c(C2CCCCC2)c2ccc(C(=O)NS(=O)(=O)C(C)C)cc21 (some centres unmarked) [drawing 109] | – | – | EC50 (HCV replicon [1]; [7]): 90 nM; EC50 (HCV replicon [2]; Table 2, read-out: NeoLuc EC50): 130 nM
COc1ccc2c(c1)CC(C(=O)N1CC34CNCC3(COC4)C1)Cn1c-2c(C2CCCCC2)c2ccc(C(=O)NS(=O)(=O)C3CC3)cc21 (centres unmarked) | 500 to 5000 | > 1000 | –
COc1ccc2c(c1)C1CC1(C(=O)N1CC34COCC3(CN(C)C4)C1)Cn1c-2c(C2CCCCC2)c2ccc(C(=O)NS(=O)(=O)N(C)C)cc21 (centres unmarked) [drawing 106] | – | – | EC50 (HCV replicon [1]; [5]): 40 nM; EC50 (HCV replicon [2]; [6]): 20 nM
COc1ccc2c(c1)C1CC1(C(=O)N1CC34COCC3(CN(C(C)=O)C4)C1)Cn1c-2c(C2CCCCC2)c2ccc(C(=O)NS(=O)(=O)CC(C)C)cc21 (centres unmarked) | 500 to 1000 | 1.9 to 500 | –
COc1ccc2c(c1)[C@@H]1C[C@]1(C(=O)N1CC34CNCC3(CN(C)C4)C1)Cn1c-2c(C2CCCCC2)c2ccc(C(=O)NS(=O)(=O)C(C)C)cc21 (some centres unmarked) | 500 to 1000 | 1.9 to 500 | –
COc1ccc2c(c1)[C@@H]1C[C@]1(C(=O)N1CC34COCC3(C1)N(C(C)=O)C4)Cn1c-2c(C2CCCCC2)c2ccc(C(=O)NS(=O)(=O)C(C)C)cc21 (some centres unmarked) [drawing 73] | 1.9 to 500 | 1.9 to 500 | –
